Measured values from US8088819B2, “Derivatives of substituted 3-phenyl-1-(phenylthienyl)propan-1-ones and of 3-phenyl-1-(phenylfuranyl) propan-1-ones, preparation and use” (priority 2006, dated 2012).

Key:
murine myocytes (C2C12) = experiment: β-oxidation of fatty acids in murine myocytes (tritiated palmitate); format: cell-based; details: 24 h pretreatment
From the text: The more the induction of the β-oxidation of fatty acids is increased, the greater the stimulating action of the compound according to the invention on metabolism in the muscle cells.
The objective is to measure the amount of tritiated water formed during the mitochondrial oxidation of ^3H-labeled fatty acids.
The C2C12 murine cell line (obtained from ECACC) is cultivated in DMEM medium (Gibco; 41965-039) with addition of 1% L-glutamine (Gibco; 25030), 1% penicillin/streptomycin (VWR; BWSTL0022/100) and 10% decomplemented fetal calf serum (FCS. Gibco; 10270-106).
The cells are seeded on 48-well plates at a density of 25·10^3 cells/well. At confluence, the medium is replaced with a differentiating medium (basal medium with addition of 2% of horse serum (Gibco; 26050-088)), then incubated at 37° C. and 5% CO2 for 4 days in order to differentiate them to myocytes.
After 4 days of differentiation, the cells are treated with the compounds according to the invention added to the culture medium for differentiation. Compound 2 was tested by dose effect from 0.01 to 1 μM, and the others were tested at a dose of 1 μM. The compounds according to the invention are dissolved in dimethylsulfoxide (DMSO, Sigma; D5879). The cells are treated for 24 h at 37° C., 5% CO2. The effect of the compounds according to the invention is compared with the effect of DMSO alone. […]
Secondly, 50 μL of precipitated supernatant is evaporated for 2 days, then the residual tritium is measured in order to evaluate the amount of tritiated palmitate not converted to water.
A standard range is prepared by successive dilutions of the tritiated palmitate/BSA complex in order to determine the amount of palmitate converted to water. For each time of the kinetics, 1 h, 2 h and 3 h, the amount in nanomoles of oxidized palmitate is calculated by linear regression. The areas under the curve are determined for each set of conditions and the results are normalized with DMSO. […]

[1] = test system: MCP1 and MMP9 genes in human monocytes (THP1); experiment: Expression of MCP1 and MMP9 in human monocytes stimulated with PMA, quantitative RT-PCR; format: cell-based; details: 24 h
Experimental: The antiinflammatory effects of the compounds according to the invention were evaluated by measuring the secretion and expression of macrophages chemoattractant protein (MCP1) and of matrix metalloproteinase 9 (MMP9) by monocytes treated with the compounds according to the invention for 24 hours and stimulated with PMA (phorbol 12-myristate 13-acetate, which causes an inflammatory response of the cells). The more the amount of MCP1 secreted is reduced, the greater the inhibitory action of the compounds according to the invention on the inflammatory reaction. Similarly, the more the expression of the genes coding for MCP1 and MMP9 is inhibited, the greater the antiinflammatory effect of the compounds according to the invention.
The THP1 human monocyte line (obtained from ATCC) is cultivated in RPMI1640 medium with addition of 25 mM Hepes (Gibco; 42401-018), 1% glutamine (Gibco; 25030-24) 1% penicillin/streptomycin (Biochrom AG; A 2213) and 10% decomplemented fetal calf serum (FCS. Gibco; 10270-106).
The cells are seeded on 24-well plates (Primaria BD Falcon) at a density of 8.70·10^5 cells/well in the treatment medium (same composition as the culture medium but with 0.2% of decomplemented fetal calf serum) and in the presence of 5 ng/mL of phorbol 12-myristate 13-acetate (PMA) for inducing the inflammatory response.
The compounds according to the invention were tested at 0.1, 0.3 and/or at 1 μm, and dissolved in dimethylsulfoxide (DMSO, Fluka; 41640). The cells are treated for 24 h at 37° C., 5% CO2. The effect of the compound according to the invention is compared with the effect of DMSO alone.
After treatment, the total RNA is extracted from the cells using the NucleoSpin® 96 RNA kit (Macherey Nagel, Hoerdt, France) following the manufacturer's instructions.
1 μg of total RNA (quantified based on the reading of the UV spectrophotometer) was then reverse-transcribed to complementary DNA by reaction for 1 hour at 37° C. in a total volume of 30 μl containing buffer 1× (Invitrogen), 1.5 mM of DTT, 0.18 mM of dNTPs (Promega), 200 ng of pdN6 (Amersham), 30 U of RNase inhibitor (Promega) and 1 μl of MMLV-RT (Invitrogen).
The quantitative PCR experiments were carried out using the MyiQ Single-Color Real-Time PCR Detection System (Biorad, Marnes-la-Coquette, France) and were performed using the iQ SYBR Green Supermix kit following the supplier's recommendations, in 96-well plates, on 5 μl of diluted reverse-transcription reaction mixture with a hybridization temperature of 60° C. Primer pairs specific to the MCP1 and MMP9 genes under investigation were used:
The amount of fluorescence emitted is directly proportional to the amount of complementary DNA present at the start of the reaction and amplified during PCR. […] The relative expression levels of each target are thus determined using the efficacy curves obtained with the points in the range.
The levels of expression of the genes of interest were then normalized, […] relative to the level of expression of the reference gene 36B4 (whose specific primers are: sense primer: 5′-[…]-3′ (SEQ ID No. 19) and antisense primer: 5′-[…]-3′ (SEQ ID No. 20)). The induction factor, i.e. the ratio of the relative signal (induced by the compound according to the invention) to the mean of the relative values of the control group, was then calculated. […]

CC(C)(Oc1ccc(CCC(=O)c2ccc(-c3ccc(C(F)(F)F)cc3)s2)c(Cl)c1Cl)C(=O)O [Compound 2, 2-(2,3-dichloro-4-(3-oxo-3-(5-(4-(trifluoromethyl)phenyl)thien-2-yl)propyl)phenoxy)-2-methylpropanoic acid]
melting point: 153 to 154 °C
β-oxidation of fatty acids in murine myocytes (murine myocytes (C2C12); in dose effect starting from 0.01 μM): significant increase
expression of MCP1 in human monocytes ([1]; at 0.1 and 0.3 μm): significant decrease

CC(C)(Oc1ccc(CCC(O)c2ccc(-c3ccc(C(F)(F)F)cc3)s2)c(Cl)c1Cl)C(=O)O (stereo not drawn) [Compound 4, 2-(2,3-dichloro-4-(3-hydroxy-3-(5-(4-(trifluoromethyl)phenyl)thien-2-yl)propyl)phenoxy)-2-methylpropanoic acid]
melting point: 54 to 56 °C
β-oxidation of fatty acids in murine myocytes (murine myocytes (C2C12); at 1 μm): significant increase

CC(C)(Oc1ccc(CCC(OCc2ccccc2)c2ccc(-c3ccc(C(F)(F)F)cc3)s2)c(Cl)c1Cl)C(=O)O (stereo not drawn) [Compound 7, 2-(4-(3-(benzyloxy)-3-(5-(4-(trifluoromethyl)phenyl)thien-2-yl)propyl)-2,3-dichlorophenoxy)-2-methylpropanoic acid]
melting point: 46 to 48 °C
expression of MCP1 in human monocytes ([1]; at 1 μm): significant decrease
expression of MMP9 in human monocytes ([1]; at 1 μm): significant decrease

CC(C)(Oc1ccc(CCC(=O)c2cc(-c3ccc(C(F)(F)F)cc3)cs2)c(Cl)c1Cl)C(=O)O [Compound 11, 2-(2,3-dichloro-4-(3-oxo-3-(4-(4-(trifluoromethyl)phenyl)thien-2-yl)propyl)phenoxy)-2-methylpropanoic acid]
melting point: 99 to 101 °C
β-oxidation of fatty acids in murine myocytes (murine myocytes (C2C12); at 1 μm): significant increase
expression of MCP1 in human monocytes ([1]; at 1 μm): significant decrease
expression of MMP9 in human monocytes ([1]; at 1 μm): significant decrease
